Test results taken from article PMC7693203 (Epilepsia, 2020).
Like-named read-outs stand apart in the source and are kept apart here. Marks after values point to notes of the source that are not given here.

Legend:
[1] = biological target: T1, CYP3A4 (Homo sapiens, UniProt P08684)
[2] = biological target: T1, CYP3A4; settings: result in words; cited from earlier work
[3] = biological target: CYP2C19 (Homo sapiens, UniProt P33261); settings: result in words; cited from earlier work
[4] = cited from earlier work; for decrease in AUCtau with concomitant CBD / decrease in C max with concomitant CBD: patients with epilepsy on stable VPA
[5] = cited from earlier work
[6] = healthy volunteers, cited from earlier work; for increase in AUCtau with concomitant CBD / increase in C max with concomitant CBD: steady-state ASD
[7] = trial 17074; after CBD alone, during RIF treatment, or after CBD and RIF; of 16
[8] = patients with epilepsy on stable CLB; result in words; cited from earlier work
[9] = biological target: T1, CYP3A4; assay: clinical; settings: in vivo

T1 sequence (P08684 whole entry): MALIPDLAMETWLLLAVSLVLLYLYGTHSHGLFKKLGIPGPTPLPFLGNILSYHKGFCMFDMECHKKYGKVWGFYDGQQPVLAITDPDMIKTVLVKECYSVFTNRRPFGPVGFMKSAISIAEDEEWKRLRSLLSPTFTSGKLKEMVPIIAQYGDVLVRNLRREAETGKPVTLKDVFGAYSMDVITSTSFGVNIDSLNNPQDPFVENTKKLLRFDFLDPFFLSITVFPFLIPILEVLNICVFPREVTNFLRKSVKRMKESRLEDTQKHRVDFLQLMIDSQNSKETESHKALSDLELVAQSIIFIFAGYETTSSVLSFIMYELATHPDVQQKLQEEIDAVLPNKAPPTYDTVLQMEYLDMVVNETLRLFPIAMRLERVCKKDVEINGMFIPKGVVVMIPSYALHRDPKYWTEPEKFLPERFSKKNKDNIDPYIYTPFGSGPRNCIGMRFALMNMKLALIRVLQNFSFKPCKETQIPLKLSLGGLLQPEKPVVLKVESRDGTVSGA
CYP2C19, sequence (P33261 whole entry): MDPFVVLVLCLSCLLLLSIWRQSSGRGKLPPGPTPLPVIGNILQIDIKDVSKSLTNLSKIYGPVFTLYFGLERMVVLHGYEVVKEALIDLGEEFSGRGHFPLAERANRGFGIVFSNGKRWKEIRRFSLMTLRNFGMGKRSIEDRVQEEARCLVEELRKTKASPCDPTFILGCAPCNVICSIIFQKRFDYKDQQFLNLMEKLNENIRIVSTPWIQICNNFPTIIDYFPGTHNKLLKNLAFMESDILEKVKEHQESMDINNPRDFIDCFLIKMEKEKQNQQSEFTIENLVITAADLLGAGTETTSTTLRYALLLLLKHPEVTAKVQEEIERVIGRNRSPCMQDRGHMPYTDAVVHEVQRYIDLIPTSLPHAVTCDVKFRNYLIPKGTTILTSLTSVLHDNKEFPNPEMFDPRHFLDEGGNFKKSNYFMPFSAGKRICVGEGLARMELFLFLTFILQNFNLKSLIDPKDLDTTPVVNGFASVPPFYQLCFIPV

## OCc1ncc2n1-c1ccc(Cl)cc1C(c1ccccc1F)=NC2 [1′‐OH‐MDZ, 1′‐hydroxymidazolam]
[1]; MDZ + CBD (steady-state CBD 750 mg BID), median (min‐max)
  t max: 3.00 (0.50‐5.02) ^e h
[1]; MDZ + placebo, MDZ 2.5 mg single dose, arithmetic mean (CV%)
  t ½: 6.11 (39.0) h
[1]; MDZ + placebo, median (min‐max)
  t max: 0.50 (0.48‐1.55) ^d h
[1]; steady-state CBD
  increase in AUCtau with concomitant CBD: 68%
  increase in C max with concomitant CBD: 12%
  increase in t ½ with concomitant CBD: 35%
[1]; with concomitant CBD, 90% CI = 1.00‐2.52
  delay to t max, median of differences: 2.25 h

## CC(C)(C)C(O)/C=C/c1ccc2c(c1)OCO2 (stereo not shown) [STP, stiripentol]
[2]
  inhibition of CYP3A4: potent inhibitor
[3]
  inhibition of CYP2C19: potent inhibitor
[4]; patients with epilepsy
  increase in AUCtau with concomitant CBD: 30%
  increase in C max with concomitant CBD: 17%
[5]
  Plasma protein binding (PPB): 96.1%
[6]
  increase in AUCtau with concomitant CBD: 55%
  increase in C max with concomitant CBD: 28%

## CO[C@H]1/C=C/O[C@@]2(C)Oc3c(C)c(O)c4c(O)c(c(/C=N/N5CCN(C)CC5)c(O)c4c3C2=O)NC(=O)/C(C)=C\C=C\[C@H](C)[C@H](O)[C@@H](C)[C@@H](O)[C@@H](C)[C@H](OC(C)=O)[C@@H]1C [RIF, rifampicin]
[7]
  healthy volunteers reporting AEs: 81%

## CN1C(=O)CC(=O)N(c2ccccc2)c2cc(Cl)ccc21 [CLB, clobazam]
[8]
  effect of concomitant CBD on exposure: no effect
[6]
  increase in AUCtau with concomitant CBD: 21%
  increase in C max with concomitant CBD: 20%

## CCCC(CCC)C(=O)O [VPA, valproate]
[4]
  decrease in AUCtau with concomitant CBD: 17%
  decrease in C max with concomitant CBD: 13%
[5]; result in words
  PPB when VPA and CBD are combined in vitro: not affected
[6]; result in words
  effect of concomitant CBD on exposure: no effect

## C=CCC(CCC)C(=O)O (stereo not shown) [4‐ene‐VPA, 2‐propyl‐4‐pentenoic acid]
[4]
  decrease in AUCtau with concomitant CBD: 30%
  decrease in C max with concomitant CBD: 23%

## Cc1ncc2n1-c1ccc(Cl)cc1C(c1ccccc1F)=NC2 [MDZ, midazolam]
[9]; t max
  t max: 0.5 h
[9]; t ½
  half-life: 4.99 h
[1]; human, in vivo
  t max: 1.00 (0.5‐3.00) h
  t ½: 4.53 (14.5) h
